Assay results as given in patent publication US4376768A, “Benzothiazine derivative” (priority 1980, dated 1983).
Read-outs that look alike come from different tables or passages of the source.

Assays:
[1] = tested on: carrageenin-induced edema; assay: Anti-inflammatory activity: suppression of carrageenin-induced edema in the rat hind foot; format: in vivo, male rats of the Wistar strain
[2] = tested on: carrageenin-induced edema; assay: Duration of anti-inflammatory activity (carrageenin edema at varied premedication times); format: in vivo, male rats of the Wistar strain; details: for Rate of suppression of edema in rats premedicated at various times: Table 3, dose = ED50
Text: The premedication time was defined as the time interval between the administration of a test compound and the injection of carrageenin.

[3] = Incidence of gastric disorders (erosion) in rats; format: in vivo, male rats of the Wistar strain; details: rat, in vivo, po
Text: (§1) Six hours later, each rat was sacrificed by decapitation.

in vivo [4] = format: in vivo; details: mouse, in vivo; Table 1; mice, oral, 7 days; read-out: Acute toxicity, LD50
mice = assay: in vivo; format: in vivo; details: Table 5; for Number of deaths / total number of test animals: p.o.; for LD50: observed for 7 days
in vivo [5] = details: for selectivity ratio: rat, in vivo, po
Description: (§2) Anti-inflammatory activity was tested as follows: Male rats of the Wistar strain were used in groups of 7. A test compound was suspended in a 0.2% carboxymethyl cellulose solution and orally administered in a dose of 0.5 ml/100 g of body weight. […] Three hours after injection of carrageenin, each rat was sacrificed by ether. The feet of both hind legs were amputated at the ankle joint and weighed to detect the difference in weight between both feet. Then, the ability of the test compound to suppress the carrageenin-induced edema was evaluated by comparing the foot weight difference of the test group with that of a control group (consisting of rats to which the solvent alone was administered). Specifically, the rate of suppression of the edema was calculated according to the following equation: [formula]
The incidence of gastric disorders in rats was tested as follows: Eight-weeks-old male rats of the Wistar strain were used in groups of 5 to 7. After they were fasted for 18 hours or more, a test compound was administered orally. Six hours later, each rat was sacrificed by decapitation. The stomach was removed, filled with 10 ml of physiological saline, and then fixed in 5% formalin. After about 10 minutes, the stomach was incised through the greater curvature and the presence or absence of gastric disorders (in particular, erosion) was examined by visual observation. According to Litchfield-Wilcoxon's method, the dose causing erosion to occur in 50% of the test animals, UD50, was calculated on an all-or-none basis.

Safety margin LD50/ED50 = details: for Safety margin, LD50/ED50: Table 1
Description: as §2
A test compound was suspended in a 0.2% carboxymethyl cellulose solution and orally administered in a dose of 0.1 ml/10 g of body weight. […] The LD50 value was calculated on the basis of the death rates on the final day.

[6] = prior art, in words; cited from earlier work
[7] = tested on: gastric disorders (erosion); assay: Incidence of gastric disorders (erosion) in rats; format: in vivo, male rats of the Wistar strain; details: Table 1; rats, oral
Text: as §1

[8] = in words, among the compounds of Table 1

## CN1C(C(=O)Nc2cccc(Cl)n2)C(=O)c2ccccc2S1(=O)=O (centres unmarked) [Compound of formula (1), N-(6-chloro-2-pyridyl)-3,4-dihydro-2-methyl-4-oxo-2H-1,2-benzothiazine-3-carboxamide 1,1-dioxide]
[1]; Rattus norvegicus, po, 3 h, Table 2, 2.0 mg/kg, p.o., read-out: Rate of suppression of edema
  inhibition in vivo at 2 mg/kg: 19.4%
[1]; Rattus norvegicus, po, 3 h, Table 2, 4.0 mg/kg, p.o., read-out: Rate of suppression of edema
  inhibition in vivo at 4 mg/kg: 43.6%
[1]; Rattus norvegicus, po, 3 h, Table 2, 8.0 mg/kg, p.o., read-out: Rate of suppression of edema
  inhibition in vivo at 8 mg/kg: 50.6%
[1]; Rattus norvegicus, po, 3 h, Table 2, 16.0 mg/kg, p.o., read-out: Rate of suppression of edema
  inhibition in vivo at 16 mg/kg: 71%
[1]; Rattus norvegicus, po, read-out: Dose producing 50% suppression, ED50, Table 2, carrageenin 1 h after compound, read 3 h later
  ED50: 6.5 mg/kg
[1]; Table 1, rat carrageenin edema, oral, read-out: Anti-inflammatory activity, ED50
  ED50: 6.5 mg/kg
[1]; in words
  Anti-inflammatory activity: potent and long-lasting
[2]; premedication 1 hr.
  Rate of suppression of edema in rats premedicated at various times: 55.7%
[2]; premedication 3 hr.
  Rate of suppression of edema in rats premedicated at various times: 54.9%
[2]; premedication 6 hr.
  Rate of suppression of edema in rats premedicated at various times: 48.3%
[2]; premedication 12 hr.
  Rate of suppression of edema in rats premedicated at various times: 40.3%
[2]; premedication 24 hr.
  Rate of suppression of edema in rats premedicated at various times: 22.6%
[2]; premedication 48 hr.
  Rate of suppression of edema in rats premedicated at various times: 9.8%
[2]; in words
  Duration of anti-inflammatory activity: excellent
[3]
  TD50 at 6 h: 200 mg/kg
In vivo [4]
  LD50 at 168 h: 4000 mg/kg
mice; 1,000 mg/kg
  Number of deaths / total number of test animals: 0/5
mice; 3,000 mg/kg
  Number of deaths / total number of test animals: 2/5
mice; 5,000 mg/kg
  Number of deaths / total number of test animals: 3/5
In vivo [5]; in words
  Therapeutic index compared with indomethacin and diclofenac: superior
In vivo [5]; [8]
  Therapeutic index: remarkably high
In vivo [5]
  selectivity ratio: 30.8
Safety margin LD50/ED50; in vivo, po
  selectivity ratio: 615
Safety margin LD50/ED50; in words
  Degree of safety: very high degree of safety
  Safety margin compared with indomethacin and diclofenac: superior
Safety margin LD50/ED50; [8]
  Safety margin: remarkably high

## COc1ccc2c(c1)c(CC(=O)O)c(C)n2C(=O)c1ccc(Cl)cc1 [Indomethacin]
[2]; premedication 1 hr.
  Rate of suppression of edema in rats premedicated at various times: 49.4%
[2]; premedication 3 hr.
  Rate of suppression of edema in rats premedicated at various times: 57.6%
[2]; premedication 6 hr.
  Rate of suppression of edema in rats premedicated at various times: 29.4%
[2]; premedication 12 hr.
  Rate of suppression of edema in rats premedicated at various times: 18.8%
[2]; premedication 24 hr.
  Rate of suppression of edema in rats premedicated at various times: -3.5%
In vivo [5]
  selectivity ratio: 1.2
Safety margin LD50/ED50
  Safety margin, LD50/ED50: 3.7

## Cc1cc(NC(=O)C2C(=O)c3ccccc3S(=O)(=O)N2C)no1 (centres unmarked) [Isoxicam, 3,4-dihydro-2-methyl-N-(5-methyl-3-isoxazolyl)-4-oxo-2H-1,2-benzothiazine-3-carboxamide 1,1-dioxide]
[2]; premedication 48 hr.
  Rate of suppression of edema in rats premedicated at various times: 1.1%
mice
  LD50: 5,000 mg/kg, p.o.
Safety margin LD50/ED50; in words
  Safety margin compared with indomethacin and diclofenac: superior
[6]
  Anti-inflammatory activity compared with Piroxicam and Sudoxicam: lower

## Cc1cccc(NC(=O)C2C(=O)c3ccccc3S(=O)(=O)N2C)n1 (centres unmarked) [6-Methyl-2-pyridyl compound, N-(6-methyl-2-pyridyl)-3,4-dihydro-2-methyl-4-oxo-2H-1,2-benzothiazine-3-carboxamide 1,1-dioxide]
In vivo [5]
  selectivity ratio: 1.1

## CN1C(C(=O)Nc2nccs2)C(=O)c2ccccc2S1(=O)=O (centres unmarked) [Sudoxicam, 3,4-dihydro-2-methyl-4-oxo-N-(2-thiazolyl)-2H-1,2-benzothiazine-3-carboxamide 1,1-dioxide]
[2]; premedication 48 hr.
  Rate of suppression of edema in rats premedicated at various times: -2.4%
[7]
  Gastric disorders, UD50: 11.8 mg/kg
mice
  LD50: 500 mg/kg, p.o.
In vivo [5]; in words
  Therapeutic index compared with indomethacin and diclofenac: superior
In vivo [5]
  selectivity ratio: 2.3
Safety margin LD50/ED50
  Safety margin, LD50/ED50: 98
Safety margin LD50/ED50; in words
  Safety margin compared with indomethacin and diclofenac: superior
[6]
  Anti-inflammatory activity: potent and long-lasting
  Degree of toxicity and incidence of gastric disorders compared with indomethacin and diclofenac: not appreciably different

## CN1C(C(=O)Nc2ccccn2)C(=O)c2ccccc2S1(=O)=O (centres unmarked) [Piroxicam, 3,4-dihydro-2-methyl-4-oxo-N-(2-pyridyl)-2H-1,2-benzothiazine-3-carboxamide 1,1-dioxide]
[2]; premedication 6 hr.
  Rate of suppression of edema in rats premedicated at various times: 40.0%
[2]; premedication 48 hr.
  Rate of suppression of edema in rats premedicated at various times: 1.7%
mice
  LD50: 490 mg/kg, p.o.
Safety margin LD50/ED50; in words
  Safety margin compared with indomethacin and diclofenac: superior
[6]
  Anti-inflammatory activity: potent and long-lasting

## O=C(O)Cc1ccccc1Nc1c(Cl)cccc1Cl [Diclofenac]
[2]; premedication 1 hr.
  Rate of suppression of edema in rats premedicated at various times: 45.9%
[2]; premedication 3 hr.
  Rate of suppression of edema in rats premedicated at various times: 24.7%
[2]; premedication 6 hr.
  Rate of suppression of edema in rats premedicated at various times: 17.6%
[2]; premedication 24 hr.
  Rate of suppression of edema in rats premedicated at various times: -1.2%
